In PubChem BioAssay AID1671318:

Biological target: Tyrosine-protein kinase Lyn (Homo sapiens) (UniProt P07948)
Assay: inhibitors of human LYN isoform A activity – biochemical, Z'-LYTE, FRET readout, dose response (AID 1671318)
Settings: Z'-LYTE FRET kinase assay, recombinant LYN A

Tyrosine-protein kinase Lyn (Homo sapiens), sequence (P07948 whole entry, looked up, canonical isoform): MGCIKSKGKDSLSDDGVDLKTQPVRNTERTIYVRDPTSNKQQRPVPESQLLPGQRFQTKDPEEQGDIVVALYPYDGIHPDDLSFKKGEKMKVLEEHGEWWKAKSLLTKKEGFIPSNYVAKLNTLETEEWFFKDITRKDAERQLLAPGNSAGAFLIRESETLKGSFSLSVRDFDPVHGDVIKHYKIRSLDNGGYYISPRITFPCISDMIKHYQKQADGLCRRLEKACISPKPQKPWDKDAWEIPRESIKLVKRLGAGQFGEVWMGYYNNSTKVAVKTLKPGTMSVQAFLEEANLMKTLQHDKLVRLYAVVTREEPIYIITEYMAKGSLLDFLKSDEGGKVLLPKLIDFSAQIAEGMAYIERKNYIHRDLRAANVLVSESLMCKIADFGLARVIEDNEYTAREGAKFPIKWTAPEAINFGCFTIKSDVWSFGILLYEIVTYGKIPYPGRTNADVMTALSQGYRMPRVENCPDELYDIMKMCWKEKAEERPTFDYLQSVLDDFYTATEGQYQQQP

IC50: 208 nM
SMILES: COc1cc2ncnc(Nc3cccc(Cl)c3)c2cc1OC
